Source: patent publication US11001569B2, “6-membered heteroaromatic substituted cyanoindoline derivatives as NIK inhibitors” (Janssen Pharmaceutica NV, priority 2016, dated 2021)
Read-outs that look alike come from different tables or passages of the source.

Key:
[1] = biological target: recombinant human NF-kappaB-inducing Kinase (NIK/MAP3K14) (Homo sapiens, UniProt Q99558); test: Inhibition of auto-phosphorylation of recombinant human NIK/MAP3K14 activity (AlphaScreen); format: biochemical; details: 25 microM ATP, averaged over all measurements on all batches
Procedure: Pharmacological Part Biological assay A Inhibition of auto-phosphorylation of recombinant human NF-kappaB-inducing Kinase (NIK/MAP3K14) Activity (AlphaScreen®)
NIK/MAP3K14 auto-phosphorylation activity was measured using the AlphaScreen® (αscreen) format (Perkin Elmer). All compounds tested were dissolved in dimethyl sulfoxide (DMSO) and further dilutions were made in assay buffer. Final DMSO concentration was 1% (v/v) in assays. Assay buffer was 50 mM Tris pH 7.5 containing 1 mM EGTA (ethylene glycol tetraacetic acid), 1 mM DTT (dithiothreitol), 0.1 mM Na3VO4, 5 mM MgCl2, 0.01% Tween® 20. Assays were carried out in 384 well Alphaplates (Perkin Elmer). […] Incubations were initiated by addition of GST-tagged NIK/MAP3K14 enzyme, carried out for 1 h at 25° C. and terminated by addition of stop buffer containing anti-phospho-IKK Ser176/180 antibody. Protein A Acceptor and Glutathione-Donor beads were added before reading using an EnVision® Multilabel Plate Reader (Perkin Elmer). Signal obtained in the wells containing blank samples was subtracted from all other wells and IC50's were determined by fitting a sigmoidal curve to % inhibition of control versus Log10 compound concentration.

[2] = system: JJN-3 (NIK translocated) multiple myeloma cells; test: Antiproliferative activity on JJN-3 multiple myeloma cells (CellTiter-Glo); format: cell-based, human; details: Homo sapiens, JJN-3 (NIK translocated) cells, 96 hr treatment, averaged values, read-out: JJN-3 Proliferation inhibition (IC50 (nM))
Procedure: (§1) Determination of Antiproliferative Activity on JJN-3 (NIK Translocated) and KMS12-BM (NIK WT) Multiple Myeloma Cells
(§2) All compounds tested were dissolved in DMSO and further dilutions were made in culture medium. Final DMSO concentration was 0.3% (v/v) in cell proliferation assays. Viability was assessed using CellTiter-Glo cell viability assay kit (Promega). […] Cells were routinely kept as suspension cells at 37° C. in a humidified 5% CO2 atmosphere. Cells were passaged at a seeding density of 0.2×10^6/ml twice a week. Cells were seeded in black tissue culture treated 96-well plates (Perkin Elmer). Densities used for plating ranged from 15000 (JJN3) to 20000 (KMS12BM) cells per well in a total volume of 135 μl medium. Drugs and/or solvents were added (15 μl) to a final volume of 150 μl. Following 96 hr of treatment, plates were removed from the incubator and allowed to equilibrate to room temperature for approx 10 min. 75 μl CellTiter-Glo reagent was added to each well that was then covered (Perkin Elmer Topseal) and shaken on plate shaker for 10 min. Luminescence was measured on a HTS Topcount (Perkin Elmer). […] For initial screening purposes, compounds were tested using a 9 point dilution curve (serial 1:3 dilutions). For each experiment, controls (containing no drug) and a blank incubation (containing cells read at the time of compound addition) were run in parallel. The blank value was subtracted from all control and sample values. For each sample, the mean value for cell growth (in relative light units) was expressed as a percentage of the mean value for cell growth of the control.

[3] = system: KMS12-BM (NIK WT) multiple myeloma cells; test: Antiproliferative activity on KMS12-BM multiple myeloma cells (CellTiter-Glo); format: cell-based, human; details: Homo sapiens, KMS-12-BM, 96 hr treatment, averaged values, read-out: KMS-12 Proliferation inhibition (IC50 (nM))
Procedure: as §1, §2

Chain of recombinant human NF-kappaB-inducing Kinase (NIK/MAP3K14) (Q99558 whole entry): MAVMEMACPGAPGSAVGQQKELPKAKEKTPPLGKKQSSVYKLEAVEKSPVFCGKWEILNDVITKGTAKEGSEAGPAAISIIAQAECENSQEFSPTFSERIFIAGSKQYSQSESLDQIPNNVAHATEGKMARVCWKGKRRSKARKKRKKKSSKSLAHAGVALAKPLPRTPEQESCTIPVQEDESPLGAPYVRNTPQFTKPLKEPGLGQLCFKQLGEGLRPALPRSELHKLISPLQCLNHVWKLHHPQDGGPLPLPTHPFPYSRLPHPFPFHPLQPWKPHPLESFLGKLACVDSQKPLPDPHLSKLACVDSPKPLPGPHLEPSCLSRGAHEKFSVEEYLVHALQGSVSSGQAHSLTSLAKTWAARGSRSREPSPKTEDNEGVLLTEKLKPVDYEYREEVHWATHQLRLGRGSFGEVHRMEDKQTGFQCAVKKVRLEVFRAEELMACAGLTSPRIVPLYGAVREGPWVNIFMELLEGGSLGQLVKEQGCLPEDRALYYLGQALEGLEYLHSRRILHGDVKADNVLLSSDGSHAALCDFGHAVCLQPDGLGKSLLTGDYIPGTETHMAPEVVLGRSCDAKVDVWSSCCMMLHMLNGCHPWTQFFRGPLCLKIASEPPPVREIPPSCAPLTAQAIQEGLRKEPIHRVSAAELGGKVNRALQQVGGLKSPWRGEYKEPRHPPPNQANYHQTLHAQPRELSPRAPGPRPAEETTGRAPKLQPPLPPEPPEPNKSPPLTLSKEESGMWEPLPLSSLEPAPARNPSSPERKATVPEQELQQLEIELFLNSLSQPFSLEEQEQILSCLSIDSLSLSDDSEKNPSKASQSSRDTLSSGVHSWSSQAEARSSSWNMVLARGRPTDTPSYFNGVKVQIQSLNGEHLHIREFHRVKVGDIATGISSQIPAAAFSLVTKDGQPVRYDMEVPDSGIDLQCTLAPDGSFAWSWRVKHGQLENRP

Compound | IC50 [1] | IC50 ([2]; JJN-3, 96 h) | IC50 ([3]; 96 h) | melting point | IC50 [2] | IC50 [3]
CC(C)OCCOc1ncccc1Nc1nccc(-c2cc(C#N)c3c(c2)[C@@](C)(CO)CN3)n1 [Compound 19] | 14.5 nM | 912 nM | > 10000 nM | 154 °C |  | 
COc1cnccc1Nc1nccc(-c2cc(C#N)c3c(c2)[C@@](C)(CO)CN3)n1 [Compound 20] | 0.9 nM | 1580 nM | > 10000 nM | > 260 °C |  | 
C[C@]1(CO)CNc2c(C#N)cc(-c3ccnc(Nc4cccnc4OC4CCOCC4)n3)cc21 [Compound 23] | 4.9 nM | 708 nM | 7410 nM | 213 °C |  | 
C[C@]1(CO)CNc2c(C#N)cc(-c3ccnc(Nc4cccnc4O[C@H]4CCCOC4)n3)cc21 [Compound 26] | 4.1 nM | 794 nM | > 10000 nM | 155 °C |  | 
C[C@]1(CO)CNc2c(C#N)cc(-c3ccnc(Nc4cccnc4O[C@H]4CCOC4)n3)cc21 [Compound 28] | 3.2 nM | 813 nM | 3090 nM | 194 °C |  | 
CC(C)Oc1ncc(Cl)cc1Nc1nccc(-c2cc(C#N)c3c(c2)[C@@](C)(CO)CN3)n1 [Compound 30] | 51.3 nM | 1260 nM | > 10000 nM | 195 °C |  | 
CC1(CO)CNc2c(C#N)cc(-c3ccnc(Nc4cccnc4C(F)(F)F)n3)cc21 (centres unmarked) [Compound 31] | 9.8 nM | 2000 nM | > 10000 nM | 202 °C |  | 
C[C@]1(CO)CNc2c(C#N)cc(-c3ccnc(Nc4cccn(CC(O)CO)c4=O)n3)cc21 (some centres unmarked) [Compound 31i] | 3.3 nM | ~5010 nM | > 10000 nM | > 250 °C |  | 
CCOc1ncc(Cl)cc1Nc1nccc(-c2cc(C#N)c3c(c2)[C@@](C)(CO)CN3)n1 [Compound 35] | 15.9 nM | 794 nM | > 10000 nM | 220 °C |  | 
CCCCOc1ncccc1Nc1nccc(-c2cc(C#N)c3c(c2)[C@@](C)(CO)CN3)n1 [Compound 40] | 16.6 nM | 550 nM | 3800 nM | 143 °C |  | 
C[C@]1(CO)CNc2c(C#N)cc(-c3ccnc(Nc4cccnc4OC[C@H]4CCCO4)n3)cc21 [Compound 43] | 4 nM | 115 nM | > 10000 nM | 141 °C |  | 
COc1nc(C2CCOCC2)ccc1Nc1nccc(-c2cc(C#N)c3c(c2)[C@@](C)(CO)CN3)n1 [Compound 44] | 9.3 nM | 81 nM | > 10000 nM | 217 °C |  | 
COCCOc1ccncc1Nc1nccc(-c2cc(C#N)c3c(c2)[C@@](C)(CO)CN3)n1 [Compound 47] | 13.2 nM | 1120 nM | > 10000 nM | 215 °C |  | 
COCCOc1nc(C2CC2)ccc1Nc1nccc(-c2cc(C#N)c3c(c2)[C@@](C)(CO)CN3)n1 [Compound 62] | 29.5 nM | 977 nM | > 10000 nM | 117 °C |  | 
COc1ncccc1Nc1ncc(F)c(-c2cc(C#N)c3c(c2)C(C)(CO)CN3)n1 (centres unmarked) [Compound 101] | 2.2 nM | 204 nM | 2460 nM | > 250 °C |  | 
COc1ncc(Cl)cc1Nc1ncc(F)c(-c2cc(C#N)c3c(c2)C(C)(CO)CN3)n1 (centres unmarked) [Compound 102] | 6.5 nM | 1580 nM | > 10000 nM | > 250 °C |  | 
COc1ncc(Cl)cc1Nc1ncc(F)c(-c2cc(C#N)c3c(c2)[C@@](C)(CO)CN3)n1 [Compound 104] | 11.2 nM | 112 nM | > 10000 nM | > 250 °C |  | 
CC1(CO)CNc2c(C#N)cc(-c3nc(Nc4cc(Cl)cnc4OC4CCOCC4)ncc3F)cc21 (centres unmarked) [Compound 105] | 30.9 nM | 2240 nM | ~3720 nM | 284 °C |  | 
COCCOc1ncccc1Nc1ncc(F)c(-c2cc(C#N)c3c(c2)[C@@](C)(CO)CN3)n1 [Compound 106] | 3.4 nM | 275 nM | 2630 nM | > 250 °C |  | 

Second part, the compound after the results:

IC50 [1] | IC50 ([2]; JJN-3, 96 h) | IC50 ([3]; 96 h) | melting point | IC50 [2] | IC50 [3] | Compound
22.4 nM |  |  | 170 °C | 813 nM | > 10000 nM | CC(C)OCCOc1ncc(Cl)cc1Nc1nccc(-c2cc(C#N)c3c(c2)[C@@](C)(CO)CN3)n1 [Compound 21]
123 nM | 6920 nM | > 10000 nM | 145 °C |  |  | COc1cccnc1Nc1nccc(-c2cc(C#N)c3c(c2)[C@@](C)(CO)CN3)n1 [Compound 24]
3.6 nM | 1510 nM | 7410 nM | 149 °C |  |  | C[C@]1(CO)CNc2c(C#N)cc(-c3ccnc(Nc4cccnc4O[C@@H]4CCCOC4)n3)cc21 [Compound 27]
38 nM | 2880 nM | > 10000 nM | 152 °C |  |  | COCCOc1ncccc1Nc1nccc(-c2cc(C#N)c3c(c2)[C@](C)(CO)CN3)n1 [Compound 34]
3.3 nM | 288 nM | > 10000 nM | > 250 °C |  |  | COc1ncc(F)cc1Nc1nccc(-c2cc(C#N)c3c(c2)[C@@](C)(CO)CN3)n1 [Compound 36]
1.8 nM | 3470 nM | > 10000 nM | 210 °C |  |  | COc1ccncc1Nc1nccc(-c2cc(C#N)c3c(c2)[C@@](C)(CO)CN3)n1 [Compound 37]
19.5 nM | 79 nM | > 10000 nM | 215 °C |  |  | COCCN(C)c1nc(OC)c(Nc2nccc(-c3cc(C#N)c4c(c3)[C@@](C)(CO)CN4)n2)cc1Cl [Compound 38]
8.5 nM | 324 nM | > 10000 nM | 204 °C |  |  | COCCOc1ncc(Cl)cc1Nc1nccc(-c2cc(C#N)c3c(c2)[C@@](C)(CO)CN3)n1 [Compound 39]
6.2 nM | 347 nM | > 10000 nM | 154 °C |  |  | C[C@]1(CO)CNc2c(C#N)cc(-c3ccnc(Nc4cccnc4OC[C@@H]4CCCO4)n3)cc21 [Compound 42]
9.1 nM | 195 nM | > 10000 nM | 138 °C |  |  | C[C@]1(CO)CNc2c(C#N)cc(-c3ccnc(Nc4cccnc4OCC4CC4)n3)cc21 [Compound 45]
95.5 nM | 3470 nM | > 10000 nM | 190 °C |  |  | COCCOc1nc(C(F)(F)F)ccc1Nc1nccc(-c2cc(C#N)c3c(c2)[C@@](C)(CO)CN3)n1 [Compound 53]
1 nM | 120 nM | 1580 nM | > 250 °C |  |  | COc1ncccc1Nc1ncc(F)c(-c2cc(C#N)c3c(c2)[C@@](C)(CO)CN3)n1 [Compound 103]
4.8 nM | 309 nM | 562 nM | 226 °C |  |  | CC1(CO)CNc2c(C#N)cc(-c3nc(Nc4cccnc4OC4CCOCC4)ncc3F)cc21 (centres unmarked) [Compound 107]
25.1 nM | 2140 nM | ~3980 nM | 173 °C |  |  | CNCC1(C)CNc2c(C#N)cc(-c3ccnc(Nc4cccnc4OC)n3)cc21 (centres unmarked) [Compound 108]
38 nM | 794 nM | > 10000 nM | 171 °C |  |  | COc1ncc(Cl)cc1Nc1nccc(-c2cc(C#N)c3c(c2)[C@](C)(COC(=O)[C@H](C)N)CN3)n1 [Compound 109]
33.9 nM | 1860 nM | > 10000 nM | 116 °C |  |  | COc1ncccc1Nc1nccc(-c2cc(C#N)c3c(c2)C(C)(CNC2CC2)CN3)n1 (centres unmarked) [Compound 110]
